# Measurements taken from US20170130052A1, “A POLYMER BASED ON A MALTODEXTRIN FOR ENCAPSULATING ORGANIC COMPOUNDS” (ROQUETTE ITALIA S.P.A., priority 2014, published 2017).
# Assay: Solubility of ketoprofen/dexamethasone owing to encapsulation in the polymers
# Conditions: water
smiles,measurement,value
C[C@@H]1C[C@H]2[C@@H]3CCC4=CC(=O)C=C[C@]4(C)[C@@]3(F)[C@@H](O)C[C@]2(C)[C@@]1(O)C(=O)CO [Dexamethasone],solubility,90 µg/mL
